Broadly, the stoichiometry N is a count of units in the complex or per binding partner.

For assay [1], the target named is T1, PDCoV M^pro (Porcine deltacoronavirus, UniProt A0A140ESF0). The experiment in a line: fluorogenic peptide cleavage assay, progress-curve inactivation. The format is biochemical. The following applies: covalent; Michael acceptor N3 derivative; assay similar to N3.
In assay [2] the target is T1, PDCoV M^pro. The assay is described as above. Type of assay: biochemical. Conditions: covalent; irreversible, Cys-144, active site; substrate MCA-AVLQSGFR-Lys(Dnp)-Lys-NH2 50 µM; enzyme 2 µM; pH 7.3, 30 °C.
Assay [3] addresses Porcine deltacoronavirus (PDCoV) main protease (M^pro) (Porcine deltacoronavirus (PDCoV)). The experiment in a line: crystal structure.

With `Cc1cc(C(=O)N[C@@H](C)C(=O)N[C@H](C(=O)N[C@@H](CC(C)C)C(=O)N[C@H](/C=C/C(=O)OC(C)C)C[C@@H]2CCNC2=O)C(C)C)no1` [M14], at PDCoV M^pro [1], the KI (inactivation) is 7.56 ± 0.26 µM.

Consider `COc1ccc(COC(=O)/C=C/[C@H](C[C@@H]2CCNC2=O)NC(=O)[C@H](CC(C)C)NC(=O)[C@@H](NC(=O)[C@H](C)NC(=O)c2cc(C)on2)C(C)C)cc1` [M25], for which the KI (inactivation) on PDCoV M^pro [1] turned out to be 8.8 ± 0.15 µM.

On PDCoV M^pro [2], `Cc1cc(C(=O)N[C@@H](C)C(=O)N[C@H](C(=O)N[C@@H](CC(C)C)C(=O)N[C@H](/C=C/C(=O)OCc2ccccc2)C[C@@H]2CCNC2=O)C(C)C)no1` [N3] returned a KI (inactivation) of 12 ± 0.13 µM.

Take “Porcine deltacoronavirus (PDCoV) main protease (M^pro) (enzyme)”: the stoichiometry N in assay [3] is 2.

For the origin of these results see paper PMC8949103 (Viruses, 2022).
